# Like-named read-outs stand apart in the source and are kept apart here.
# What was measured:
# Type in all cases: cell-based, human
# A549 lung cancer cells = test: MTS cell viability assay, A549; conditions: for EC50: read-out: EC50 (effective concentration that resulted in 50% cell viability)
# Procedure: (§1) Human breast (HCC38, MCF-7, MDA-MB-231, SK-BR-3, T-47D, and ZR-75-1), lung (A549 and H520), and prostate (DU145 and PC-3) cancer cell lines were obtained from American Culture Type Collection (ATCC). The HCC38, MCF-7, MDA-MB-231, SK-BR-3, T-47D, ZR-75-1, and A549 cells were grown in MEM supplemented with 10% FBS, 25 mM HEPES buffer (pH 7.4), penicillin (100 U/mL), and streptomycin (100 μg/mL). The H520, DU145, and PC-3 cell lines were grown in RPMI-1640 supplemented with 10% FBS, 25 mM HEPES buffer (pH 7.4), penicillin (100 U/mL), and streptomycin (100 μg/mL). All cell lines were maintained at 37° C. in a humidified, 5% CO2 atmosphere.
# (§2) Cells were cultured at a density of 2-3.5×10^3 cells per well in flat bottomed 96-well plates in 100 μL of complete growth medium and incubated for 2 days to reach ˜50% confluence. The cells were then treated with solvent or the appropriate drugs (CDDP stock was dissolved in 0.15 M NaCl, carboplatin stock was dissolved in 5% glucose, synthesized Pt(IV) complexes were dissolved in DMSO) for 1 hour, washed three times with 100 μL PBS, and incubated in 100 μL of fresh medium. After 2 days, the medium was replaced with 120 μL of medium containing CellTiter 96® Aqueous One Solution Reagent (MTS reagent) (Promega, Madison, Wis.). The cells were incubated at 37° C. for 4 hours and the cell viability was determined by measuring the absorbance at 490 nm using a Tecan Infinite M1000 microplate reader. The 48 h treatment was done in a similar manner, except the cells were not washed after treatment and the MTS reagent was immediately added. Viability of treated groups was calculated as a percent of control and graphed with GraphPad Prism.
# (§3) The anti-proliferative activities of Pt(IV) complexes were determined in two lung (A549 and H520), two prostate (DU145 and PC-3), and six breast (HCC38, MCF-7, MDA-MB-231, SK-BR-3, T-47D, and ZR-75-1) cancer cell lines. The cells were treated with increasing concentrations of cisplatin (CDDP), carboplatin, or the Pt(IV) complexes for 1 or 48 hours, and the viability was measured using an MTS colorimetric cell proliferation assay. Graphs of the results are shown for DU145 (FIG. 8A), PC-3 (FIG. 8B), SK-BR-3 (FIG. 8C), ZR-75-1 (FIG. 8D), A549 (FIG. 8E), and MCF-7 (FIG. 8F).
# H520 lung cancer cells = test: MTS cell viability assay, H520; conditions: read-out: EC50 (effective concentration that resulted in 50% cell viability)
# Procedure: as §1, §2, §3
# [1] = test system: DU145 prostate cancer cells; conditions: for EC50: read-out: EC50 (effective concentration that resulted in 50% cell viability)
# Procedure: as §1, §2, §3
# (§4) The anti-proliferative activities of certain Pt(II) complexes were determined in DU145, PC-3, and SK-BR-3 cells. The cells were treated with increasing concentrations of cisplatin (CDDP) or the Pt(II) complexes for 1 or 48 hours, and the viability was measured using an MTS colorimetric cell proliferation assay.
# [2] = test system: PC-3 prostate cancer cells; test: MTS cell viability assay, PC-3; conditions: read-out: EC50 (effective concentration that resulted in 50% cell viability)
# Procedure: as §1, §2, §3, §4
# [3] = test system: HCC38 breast cancer cells; test: MTS cell viability assay, HCC38; conditions: read-out: EC50 (effective concentration that resulted in 50% cell viability)
# Procedure: as §1, §2, §3
# [4] = test system: MCF-7 breast cancer cells; test: MTS cell viability assay, MCF-7; conditions: for EC50: read-out: EC50 (effective concentration that resulted in 50% cell viability)
# Procedure: as §1, §2, §3
# [5] = test system: MDA-MB-231 breast cancer cells; test: MTS cell viability assay, MDA-MB-231; conditions: read-out: EC50 (effective concentration that resulted in 50% cell viability)
# Procedure: as §1, §2, §3
# [6] = test system: SK-BR-3 breast cancer cells; test: MTS cell viability assay, SK-BR-3; conditions: read-out: EC50 (effective concentration that resulted in 50% cell viability)
# Procedure: as §1, §2, §3, §4
# [7] = test system: T-47D breast cancer cells; test: MTS cell viability assay, T-47D
# Procedure: as §1, §2, §3
# [8] = test system: ZR-75-1 breast cancer cells; test: MTS cell viability assay, ZR-75-1; conditions: read-out: EC50 (effective concentration that resulted in 50% cell viability)
# Procedure: as §1, §2, §3
# [9] = MDA-MB-231, 1 h treatment, Table 2
# [10] = MDA-MB-231, 48 h treatment, Table 4
# [11] = SK-BR-3, 1 h treatment, Table 2
# [12] = SK-BR-3, 48 h treatment, Table 4
# [13] = 1 h treatment, Table 2, read-out: EC50 (effective concentration that resulted in 50% cell viability)
# [14] = 48 h treatment, Table 4, read-out: EC50 (effective concentration that resulted in 50% cell viability)
# [15] = ZR-75-1, 1 h treatment, Table 2
# [16] = ZR-75-1, 48 h treatment, Table 4
compound,measurement,setting,value
CCCCCOc1ccnc(-c2cc(OCCCCC)ccn2)c1.[Cl][Pt][Cl] [Pt(II)-5C],EC50,"A549 lung cancer cells; A549, 1 h treatment, Table 2",18 ± 1 µM
same,EC50,"A549 lung cancer cells; A549, 48 h treatment, Table 4",16.5 ± 0.5 µM
same,EC50,"H520 lung cancer cells; H520, 1 h treatment, Table 2",23 ± 5 µM
same,EC50,"H520 lung cancer cells; H520, 48 h treatment, Table 4",17 ± 3 µM
same,EC50,"[1]; DU145, 1 h treatment, Table 2",8 ± 2 µM
same,EC50,"[1]; DU145, 48 h treatment, Table 4",6 ± 0.7 µM
same,EC50,"[2]; PC-3, 1 h treatment, Table 2",7 ± 1 µM
same,EC50,"[2]; PC-3, 48 h treatment, Table 4",7.3 ± 0.7 µM
same,EC50,"[3]; HCC38, 1 h treatment, Table 2",13 ± 5 µM
same,EC50,"[3]; HCC38, 48 h treatment, Table 4",10 ± 2 µM
same,EC50,"[4]; MCF-7, 1 h treatment, Table 2",21 ± 5 µM
same,EC50,"[4]; MCF-7, 48 h treatment, Table 4",15 ± 7 µM
same,EC50,[5]; [9],4 ± 2 µM
same,EC50,[5]; [10],4.1 ± 0.2 µM
same,EC50,[6]; [11],2.8 ± 0.8 µM
same,EC50,[6]; [12],2.4 ± 0.4 µM
same,EC50,[7]; [13],9 ± 3 µM
same,EC50,[7]; [14],3 ± 1 µM
same,EC50,[8]; [15],8 ± 3 µM
same,EC50,[8]; [16],6.6 ± 0.7 µM
"[Pt(IV)Cl2(OAc)2(4,4′-dimethoxy-2,2′-bipyridine)] [Pt(IV)-1C]",EC50,"A549 lung cancer cells; A549, 1 h treatment, Table 3",> 100 µM
same,EC50,"A549 lung cancer cells; A549, 48 h, Table 5",> 100 µM
same,effect on cell viability (in words),"A549 lung cancer cells; A549, 48 hour treatment (FIG. 8E)",had no effect
same,EC50,"H520 lung cancer cells; H520, 1 h treatment, Table 3",> 100 µM
same,EC50,"H520 lung cancer cells; H520, 48 h, Table 5",> 100 µM
same,effect on cell viability (in words),"[1]; DU145, 1 hour treatment (FIG. 8A, top), up to 1 mM carboplatin, 100 μM Pt(IV)-1C, 50 μM Pt(IV)-2C",did not have any effects
same,EC50,"[1]; DU145, 1 h treatment, Table 3",> 100 µM
same,EC50,"[1]; DU145, 48 h, Table 5",80 ± 20 µM
same,effect on cell viability (in words),"[1]; DU145, 48 hours treatment (FIG. 8A, bottom)",more effective than carboplatin
same,EC50,"[2]; PC-3, 1 h treatment, Table 3",> 100 µM
same,EC50,"[2]; PC-3, 48 h, Table 5",> 100 µM
same,EC50,"[3]; HCC38, 1 h treatment, Table 3",> 100 µM
same,EC50,"[3]; HCC38, 48 h, Table 5",> 100 µM
same,EC50,"[4]; MCF-7, 1 h treatment, Table 3",> 100 µM
same,EC50,"[4]; MCF-7, 48 h, Table 5",> 100 µM
same,effect on cell viability (in words),"[4]; MCF-7, 48 hour treatment (FIG. 8F)",had no effect
same,EC50,"[5]; MDA-MB-231, 1 h treatment, Table 3",> 100 µM
same,EC50,"[5]; MDA-MB-231, 48 h, Table 5",> 100 µM
same,EC50,"[6]; SK-BR-3, 1 h treatment, Table 3",> 100 µM
same,EC50,"[6]; SK-BR-3, 48 h, Table 5",80 ± 20 µM
same,EC50,"[7]; 1 h treatment, Table 3, read-out: EC50 (effective concentration that resulted in 50% cell viability)",> 100 µM
same,EC50,"[7]; 48 h, Table 5, read-out: EC50 (effective concentration that resulted in 50% cell viability)",32 ± 0.5 µM
same,EC50,"[8]; ZR-75-1, 1 h treatment, Table 3",> 100 µM
same,EC50,"[8]; ZR-75-1, 48 h, Table 5",> 100 µM
CCCOc1ccnc(-c2cc(OCCC)ccn2)c1.[Cl][Pt][Cl] [Pt(II)-3C],EC50,"A549 lung cancer cells; A549, 1 h treatment, Table 2",48 ± 3 µM
same,EC50,"A549 lung cancer cells; A549, 48 h treatment, Table 4",17 ± 1 µM
same,EC50,"H520 lung cancer cells; H520, 1 h treatment, Table 2",40 ± 20 µM
same,EC50,"H520 lung cancer cells; H520, 48 h treatment, Table 4",13 ± 5 µM
same,EC50,"[1]; DU145, 1 h treatment, Table 2",6 ± 1 µM
same,EC50,"[1]; DU145, 48 h treatment, Table 4",4 ± 2 µM
same,EC50,"[2]; PC-3, 1 h treatment, Table 2",5 ± 1 µM
same,EC50,"[2]; PC-3, 48 h treatment, Table 4",5.1 ± 0.8 µM
same,EC50,"[3]; HCC38, 1 h treatment, Table 2",3 ± 2 µM
same,EC50,"[3]; HCC38, 48 h treatment, Table 4",4.7 ± 0.5 µM
same,EC50,"[4]; MCF-7, 1 h treatment, Table 2",100 µM
same,EC50,"[4]; MCF-7, 48 h treatment, Table 4",19 ± 4 µM
same,EC50,[5]; [9],4 ± 2 µM
same,EC50,[5]; [10],2.2 ± 0.1 µM
same,EC50,[6]; [11],1.81 ± 0.03 µM
same,EC50,[6]; [12],1.73 ± 0.01 µM
same,EC50,[7]; [13],2.4 ± 0.1 µM
same,EC50,[7]; [14],1.9 ± 0.1 µM
same,EC50,[8]; [15],8.9 ± 0.4 µM
same,EC50,[8]; [16],5 ± 1 µM
